Test results from ChEMBL document CHEMBL5291721, “A preclinical secondary pharmacology resource illuminates target-adverse drug reaction associations of marketed drugs” (Nat Commun, 2023).

Key:
[1] = biological target: T1, Muscarinic acetylcholine receptor M5 (Homo sapiens, UniProt P08912)
T1 sequence (P08912 whole entry): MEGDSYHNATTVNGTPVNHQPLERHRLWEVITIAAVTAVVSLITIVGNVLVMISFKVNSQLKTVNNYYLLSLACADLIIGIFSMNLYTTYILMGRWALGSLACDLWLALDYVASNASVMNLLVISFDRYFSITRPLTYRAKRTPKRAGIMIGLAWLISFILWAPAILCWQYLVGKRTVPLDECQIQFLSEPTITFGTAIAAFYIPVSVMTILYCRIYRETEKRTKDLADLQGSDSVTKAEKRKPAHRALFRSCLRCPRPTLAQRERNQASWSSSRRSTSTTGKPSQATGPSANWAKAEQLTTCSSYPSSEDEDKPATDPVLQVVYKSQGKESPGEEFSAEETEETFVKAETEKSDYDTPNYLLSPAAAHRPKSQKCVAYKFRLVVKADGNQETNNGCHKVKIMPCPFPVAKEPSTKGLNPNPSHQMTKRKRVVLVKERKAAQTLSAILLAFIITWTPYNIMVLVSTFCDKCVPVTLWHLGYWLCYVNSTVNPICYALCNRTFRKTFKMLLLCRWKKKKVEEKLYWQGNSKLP

[2] = biological target: T2, Muscarinic acetylcholine receptor M4 (Homo sapiens, UniProt P08173)
T2 sequence (P08173 whole entry): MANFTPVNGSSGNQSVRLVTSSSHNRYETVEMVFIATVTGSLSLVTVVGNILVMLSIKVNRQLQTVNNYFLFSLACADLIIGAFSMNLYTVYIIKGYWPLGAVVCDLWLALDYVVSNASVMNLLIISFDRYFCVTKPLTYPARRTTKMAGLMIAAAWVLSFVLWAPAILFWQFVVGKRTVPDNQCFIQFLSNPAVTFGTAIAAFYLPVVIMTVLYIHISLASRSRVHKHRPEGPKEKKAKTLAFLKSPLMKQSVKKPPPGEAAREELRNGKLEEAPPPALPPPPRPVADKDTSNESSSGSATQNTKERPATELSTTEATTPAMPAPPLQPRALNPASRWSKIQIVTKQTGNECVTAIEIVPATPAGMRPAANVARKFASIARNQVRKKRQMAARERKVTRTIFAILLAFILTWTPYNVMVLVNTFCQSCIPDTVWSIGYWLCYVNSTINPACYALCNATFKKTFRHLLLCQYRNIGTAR

[3] = biological target: D(1B) dopamine receptor (Homo sapiens, UniProt P21918)
Sequence of D(1B) dopamine receptor (P21918 whole entry): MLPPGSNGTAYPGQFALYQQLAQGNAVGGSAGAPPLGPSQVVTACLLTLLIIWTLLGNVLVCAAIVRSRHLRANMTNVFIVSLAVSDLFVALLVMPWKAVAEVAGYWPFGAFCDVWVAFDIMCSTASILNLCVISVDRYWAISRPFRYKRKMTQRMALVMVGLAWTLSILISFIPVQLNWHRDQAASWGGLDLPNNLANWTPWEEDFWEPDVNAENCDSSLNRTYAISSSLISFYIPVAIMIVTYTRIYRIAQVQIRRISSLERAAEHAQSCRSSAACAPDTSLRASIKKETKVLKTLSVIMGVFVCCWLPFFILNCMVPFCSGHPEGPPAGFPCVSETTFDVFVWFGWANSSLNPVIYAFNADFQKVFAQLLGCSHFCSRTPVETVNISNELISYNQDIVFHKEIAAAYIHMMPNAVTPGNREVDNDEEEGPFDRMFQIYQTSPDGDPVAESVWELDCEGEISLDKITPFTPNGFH

[4] = biological target: T3, Nuclear receptor subfamily 1 group I member 3 (Homo sapiens, UniProt Q14994); assay type: functional
T3 sequence (Q14994 whole entry): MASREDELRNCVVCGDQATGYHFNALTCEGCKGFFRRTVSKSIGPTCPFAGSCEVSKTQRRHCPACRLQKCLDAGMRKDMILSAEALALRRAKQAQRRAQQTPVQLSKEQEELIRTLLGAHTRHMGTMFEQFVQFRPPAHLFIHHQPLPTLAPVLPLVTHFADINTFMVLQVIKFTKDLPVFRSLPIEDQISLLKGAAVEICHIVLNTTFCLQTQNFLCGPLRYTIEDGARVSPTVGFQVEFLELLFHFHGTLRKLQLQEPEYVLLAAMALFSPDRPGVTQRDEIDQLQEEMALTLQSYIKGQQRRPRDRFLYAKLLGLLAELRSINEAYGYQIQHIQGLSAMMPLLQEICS

[5] = biological target: T4, Androgen receptor (Rattus norvegicus, UniProt P15207)
T4 sequence (P15207 whole entry): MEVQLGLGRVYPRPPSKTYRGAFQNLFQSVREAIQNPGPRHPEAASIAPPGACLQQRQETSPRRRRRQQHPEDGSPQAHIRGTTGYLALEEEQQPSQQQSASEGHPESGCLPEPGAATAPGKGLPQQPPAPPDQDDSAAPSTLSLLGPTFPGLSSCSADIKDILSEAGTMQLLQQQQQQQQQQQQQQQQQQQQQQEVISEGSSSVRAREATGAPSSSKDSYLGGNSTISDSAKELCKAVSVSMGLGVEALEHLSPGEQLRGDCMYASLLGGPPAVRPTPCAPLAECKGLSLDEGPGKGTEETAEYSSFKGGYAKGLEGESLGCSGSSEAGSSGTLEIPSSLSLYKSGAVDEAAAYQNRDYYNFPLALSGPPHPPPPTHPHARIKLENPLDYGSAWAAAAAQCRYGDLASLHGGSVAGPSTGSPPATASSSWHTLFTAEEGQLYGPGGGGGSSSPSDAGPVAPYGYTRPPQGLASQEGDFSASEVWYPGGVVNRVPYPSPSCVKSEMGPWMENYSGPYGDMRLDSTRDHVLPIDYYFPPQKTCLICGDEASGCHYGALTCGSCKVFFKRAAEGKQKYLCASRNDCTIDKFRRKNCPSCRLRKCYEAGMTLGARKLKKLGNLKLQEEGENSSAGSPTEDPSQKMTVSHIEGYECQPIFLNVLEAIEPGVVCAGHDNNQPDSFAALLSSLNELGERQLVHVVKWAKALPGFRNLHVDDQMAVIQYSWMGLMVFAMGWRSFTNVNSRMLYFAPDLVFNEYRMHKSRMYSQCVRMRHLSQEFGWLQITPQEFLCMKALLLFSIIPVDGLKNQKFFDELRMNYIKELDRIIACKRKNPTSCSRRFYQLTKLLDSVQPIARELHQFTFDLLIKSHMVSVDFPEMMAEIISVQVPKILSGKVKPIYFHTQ

[6] = biological target: 5-hydroxytryptamine receptor 5A (Homo sapiens, UniProt P47898)
Sequence of 5-hydroxytryptamine receptor 5A (P47898 whole entry): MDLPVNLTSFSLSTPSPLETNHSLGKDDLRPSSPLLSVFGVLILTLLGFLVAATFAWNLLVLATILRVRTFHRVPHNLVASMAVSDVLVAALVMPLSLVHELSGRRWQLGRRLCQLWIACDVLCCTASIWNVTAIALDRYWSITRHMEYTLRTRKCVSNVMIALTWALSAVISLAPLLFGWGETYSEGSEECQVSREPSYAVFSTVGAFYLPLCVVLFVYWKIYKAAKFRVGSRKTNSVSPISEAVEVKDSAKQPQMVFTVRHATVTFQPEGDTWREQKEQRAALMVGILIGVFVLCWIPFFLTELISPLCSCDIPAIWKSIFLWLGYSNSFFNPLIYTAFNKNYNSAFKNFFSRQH

[7] = biological target: T5, Substance-K receptor (Homo sapiens, UniProt P21452)
T5 sequence (P21452 whole entry): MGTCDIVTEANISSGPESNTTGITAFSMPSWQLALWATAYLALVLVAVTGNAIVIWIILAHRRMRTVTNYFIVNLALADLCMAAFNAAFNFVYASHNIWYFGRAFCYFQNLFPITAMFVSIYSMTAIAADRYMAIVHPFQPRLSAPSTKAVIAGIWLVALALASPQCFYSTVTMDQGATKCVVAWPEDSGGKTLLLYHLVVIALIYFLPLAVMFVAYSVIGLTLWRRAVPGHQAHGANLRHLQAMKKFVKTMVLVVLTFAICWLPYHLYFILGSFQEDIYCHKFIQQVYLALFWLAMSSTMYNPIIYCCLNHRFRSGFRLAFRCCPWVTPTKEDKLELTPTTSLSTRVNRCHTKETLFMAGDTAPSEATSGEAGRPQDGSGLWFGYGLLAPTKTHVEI

[8] = biological target: Hydroxycarboxylic acid receptor 2 (Homo sapiens, UniProt Q8TDS4)
Sequence of Hydroxycarboxylic acid receptor 2 (Q8TDS4 whole entry): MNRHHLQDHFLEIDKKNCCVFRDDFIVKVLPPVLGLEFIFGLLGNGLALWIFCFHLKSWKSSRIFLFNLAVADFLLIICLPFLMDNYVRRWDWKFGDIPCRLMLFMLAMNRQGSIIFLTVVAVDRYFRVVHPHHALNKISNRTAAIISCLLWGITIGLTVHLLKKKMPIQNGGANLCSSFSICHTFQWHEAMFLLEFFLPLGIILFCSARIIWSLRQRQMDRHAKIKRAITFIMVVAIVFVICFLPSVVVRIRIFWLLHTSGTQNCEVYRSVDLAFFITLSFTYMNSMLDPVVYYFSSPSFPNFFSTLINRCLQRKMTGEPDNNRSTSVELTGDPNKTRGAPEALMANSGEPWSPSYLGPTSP

[9] = biological target: Synaptic vesicular amine transporter (Rattus norvegicus, UniProt Q01827); assay type: functional
Sequence of Synaptic vesicular amine transporter (Q01827 whole entry): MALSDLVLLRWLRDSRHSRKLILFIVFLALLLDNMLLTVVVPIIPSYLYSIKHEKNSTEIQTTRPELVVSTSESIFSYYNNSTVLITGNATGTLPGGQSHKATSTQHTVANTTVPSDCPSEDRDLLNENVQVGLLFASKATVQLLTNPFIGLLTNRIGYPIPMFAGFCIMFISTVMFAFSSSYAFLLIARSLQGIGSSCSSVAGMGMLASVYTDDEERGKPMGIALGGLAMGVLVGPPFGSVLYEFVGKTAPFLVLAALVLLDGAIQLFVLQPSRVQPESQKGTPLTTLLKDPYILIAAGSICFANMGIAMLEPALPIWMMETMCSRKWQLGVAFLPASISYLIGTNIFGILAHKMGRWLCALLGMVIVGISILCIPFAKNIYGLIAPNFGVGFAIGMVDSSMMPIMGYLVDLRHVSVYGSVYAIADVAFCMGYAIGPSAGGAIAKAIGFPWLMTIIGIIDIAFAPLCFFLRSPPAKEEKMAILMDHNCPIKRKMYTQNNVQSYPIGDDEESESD
Also: assay procedure not described here.

## Cn1nnc2c(C(N)=O)ncn2c1=O [TEMOZOLOMIDE]
[1]
  AC50: > 10 µM

## Cc1c(C(=O)NN2CCCCC2)nn(-c2ccc(Cl)cc2Cl)c1-c1ccc(Cl)cc1 [RIMONABANT]
[2]
  AC50: > 10 µM
[1]
  AC50: > 10 µM
[3]
  AC50: > 10 µM
[4]
  AC50: 6.6 µM
[5]
  AC50: > 30 µM
[6]
  AC50: > 10 µM
[7]
  AC50: > 10 µM

## N[C@@H]1[C@H]2CN(c3nc4c(cc3F)c(=O)c(C(=O)O)cn4-c3ccc(F)cc3F)C[C@@H]12 [TROVAFLOXACIN]
[4]
  AC50: > 30 µM

## NCC(CC(=O)O)c1ccc(Cl)cc1 (configuration not stated) [BACLOFEN]
[2]
  AC50: > 10 µM
[1]
  AC50: > 10 µM
[3]
  AC50: > 10 µM
[6]
  AC50: > 10 µM
[7]
  AC50: > 10 µM

## Cc1cn([C@H]2C=C[C@@H](CO)O2)c(=O)[nH]c1=O [STAVUDINE]
[1]
  AC50: > 10 µM

## CC1=C(C(=O)O)N2C(=O)[C@@H](NC(=O)[C@H](N)c3ccccc3)[C@H]2SC1 [CEPHALEXIN ANHYDROUS]
[8]
  AC50: > 10 µM

## CN1C(C(=O)Nc2ccccn2)=C(O)c2sc(Cl)cc2S1(=O)=O [LORNOXICAM]
[4]
  AC50: > 30 µM
[5]
  AC50: > 30 µM

## CCCCCCOc1nsnc1C1=CCCN(C)C1 [XANOMELINE]
[9]
  AC50: 1.8 µM

## Clc1ccc2nsnc2c1NC1=NCCN1 [TIZANIDINE]
[8]
  AC50: > 10 µM
[5]
  AC50: > 30 µM

## CN(C)CC(c1ccc(O)cc1)C1(O)CCCCC1 (configuration not stated) [DESVENLAFAXINE]
[9]
  AC50: > 30 µM

## Cc1ccc(-c2cc(C(F)(F)F)nn2-c2ccc(S(N)(=O)=O)cc2)cc1 [CELECOXIB]
[8]
  AC50: > 10 µM
[2]
  AC50: > 10 µM
[1]
  AC50: > 10 µM
[3]
  AC50: > 10 µM
[5]
  AC50: > 30 µM
[6]
  AC50: > 10 µM
[7]
  AC50: > 10 µM

## CC[C@H]1[C@@H](O)[C@@H]2[C@H](CC[C@]3(C)[C@@H]([C@H](C)CCC(=O)O)CC[C@@H]23)[C@@]2(C)CC[C@@H](O)C[C@@H]12 [OBETICHOLIC ACID]
[9]
  AC50: > 30 µM

## CN(C)CCC(c1ccc(Cl)cc1)c1ccccn1 (configuration not stated) [CHLORPHENIRAMINE]
[2]
  AC50: > 10 µM
[1]
  AC50: 6.12 µM
[3]
  AC50: > 10 µM
[6]
  AC50: > 10 µM
[7]
  AC50: > 10 µM

## CO[C@H]1C[C@@H]2CC[C@@H](C)[C@@](O)(O2)C(=O)C(=O)N2CCCC[C@H]2C(=O)O[C@H]([C@H](C)C[C@@H]2CC[C@@H](O)[C@H](OC)C2)CC(=O)[C@H](C)/C=C(\C)[C@@H](O)[C@@H](OC)C(=O)[C@H](C)C[C@H](C)/C=C/C=C/C=C/1C [SIROLIMUS]
[9]
  AC50: 23 µM
[5]
  AC50: 11.9 µM

## CCC(C)n1ncn(-c2ccc(N3CCN(c4ccc(OCC5COC(Cn6cncn6)(c6ccc(Cl)cc6Cl)O5)cc4)CC3)cc2)c1=O (configuration not stated) [ITRACONAZOLE]
[1]
  AC50: > 10 µM
[4]
  AC50: > 30 µM

## NS(=O)(=O)Cc1noc2ccccc12 [ZONISAMIDE]
[5]
  AC50: > 10 µM

## CS(=O)(=O)c1ccc(C2=C(c3ccccc3)C(=O)OC2)cc1 [ROFECOXIB]
[2]
  AC50: > 10 µM
[1]
  AC50: > 10 µM
[3]
  AC50: > 10 µM
[6]
  AC50: > 10 µM
[7]
  AC50: > 10 µM

## Cc1cn([C@H]2C[C@H](N=[N+]=[N-])[C@@H](CO)O2)c(=O)[nH]c1=O [ZIDOVUDINE]
[8]
  AC50: > 10 µM

## CC[C@H]1OC(=O)[C@H](C)[C@@H](O[C@H]2C[C@@](C)(OC)[C@@H](O)[C@H](C)O2)[C@H](C)[C@@H](O[C@@H]2O[C@H](C)C[C@H](N(C)C)[C@H]2O)[C@](C)(O)C[C@@H](C)CN(C)[C@H](C)[C@@H](O)[C@]1(C)O [AZITHROMYCIN]
[1]
  AC50: > 10 µM

## CCOC(=O)[C@H](CCc1ccccc1)N[C@@H](C)C(=O)N1[C@H](C(=O)O)C[C@@H]2CCC[C@@H]21
[8]
  AC50: > 10 µM

## O=C(O)c1cc(O)ccc1O [GENTISIC ACID]
[9]
  AC50: > 30 µM

## C[C@]12CCC(=O)C=C1CC[C@@H]1[C@@H]2[C@@H](O)C[C@@]2(C)[C@H]1CC[C@]2(O)C(=O)CO [HYDROCORTISONE]
[8]
  AC50: > 10 µM
[5]
  AC50: > 30 µM

## O=C(CCNNC(=O)c1ccncc1)NCc1ccccc1 [NIALAMIDE]
[9]
  AC50: > 30 µM
